# Assay results as given in ChEMBL document CHEMBL1201862, “PubChem BioAssay data set” (2004).
# Activity calls are given as the source filed them.
# Assays:
# [1] = inhibitors of intracellular T. cruzi replication, confirmation, NIH3T3 host cells, beta-gal luminescence (AID 2044); format: functional, cell-based;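 further: intracellular parasites grown in NIH/3T3 mouse fibroblasts as host cells; luminescent beta-galactosidase reporter signal from transgenic T. cruzi replicating inside host cells; inhibitors lower the luminescence signal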
# [2] = cytotoxicity toward NIH3T3 fibroblasts, dose response, counter-screen, cell-based, ATP luminescence, mouse fibroblasts (AID 2010); format: functional;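 further: cells exposed to compound for about 90 hours before reading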
# [3] = THP-1 cell cytotoxicity, dose response, cytotoxicity control for non-replicating M. tuberculosis project (AID 489025); format: functional
# cells = format: functional
# [4] = biological target: Glyceraldehyde-3-phosphate dehydrogenase (Homo sapiens, UniProt P04406)
# Leucine aminopeptidase = biological target: T1, Leucine aminopeptidase (Plasmodium falciparum 3D7, UniProt Q8IL11); assay: P. falciparum M17LAP inhibitors, primary screen, biochemical, fluorogenic H-Leu-NHMec substrate, 1536-well (AID 1619); format: functional
# T1 sequence (Q8IL11 whole entry): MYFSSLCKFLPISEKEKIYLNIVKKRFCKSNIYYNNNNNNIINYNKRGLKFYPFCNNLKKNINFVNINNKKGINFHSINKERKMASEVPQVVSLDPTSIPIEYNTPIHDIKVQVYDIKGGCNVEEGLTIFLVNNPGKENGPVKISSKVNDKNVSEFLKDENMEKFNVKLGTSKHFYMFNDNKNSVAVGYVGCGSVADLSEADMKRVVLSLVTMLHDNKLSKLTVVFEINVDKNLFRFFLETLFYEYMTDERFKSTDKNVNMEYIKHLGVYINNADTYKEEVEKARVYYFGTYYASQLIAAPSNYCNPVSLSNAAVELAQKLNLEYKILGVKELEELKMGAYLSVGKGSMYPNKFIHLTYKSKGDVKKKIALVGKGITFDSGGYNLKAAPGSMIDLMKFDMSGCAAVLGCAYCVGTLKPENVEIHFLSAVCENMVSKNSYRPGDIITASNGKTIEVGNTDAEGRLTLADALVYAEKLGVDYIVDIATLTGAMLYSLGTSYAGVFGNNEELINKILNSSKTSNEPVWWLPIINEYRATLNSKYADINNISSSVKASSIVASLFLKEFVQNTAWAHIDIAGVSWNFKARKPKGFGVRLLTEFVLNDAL
# Cytochrome P450 2C19 = Cytochrome P450 2C19 (Homo sapiens, UniProt P33261); assay: Cytochrome panel assay with activity outcomes. Panel member name: p450-cyp2c19 Compounds with AC50 equal or less than 10 uM are considered active; format: functional
# Cytochrome P450 3A4 = Cytochrome P450 3A4 (Homo sapiens, UniProt P08684);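 further: CYP3A4 tested as one member of a cytochrome P450 panel screen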
# Cytochrome P450 2C9 [5] = biological target: T2, Cytochrome P450 2C9 (Homo sapiens, UniProt P11712)
# Estrogen receptor beta = Estrogen receptor beta (Homo sapiens, UniProt Q92731);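 further: recombinant ER-beta bound to coactivator SRC1 peptide in presence of estradiol agonist; inhibitors block coactivator peptide binding and lower the FRET signal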
# [6] = biological target: T3, Replicative DNA helicase DnaB (Mycobacterium tuberculosis, UniProt P9WMR3); assay: DnaB intein splicing inhibitors, dose response, biochemical, cell-free fluorescence (AID 449749); format: functional
# T3 sequence (P9WMR3 whole entry): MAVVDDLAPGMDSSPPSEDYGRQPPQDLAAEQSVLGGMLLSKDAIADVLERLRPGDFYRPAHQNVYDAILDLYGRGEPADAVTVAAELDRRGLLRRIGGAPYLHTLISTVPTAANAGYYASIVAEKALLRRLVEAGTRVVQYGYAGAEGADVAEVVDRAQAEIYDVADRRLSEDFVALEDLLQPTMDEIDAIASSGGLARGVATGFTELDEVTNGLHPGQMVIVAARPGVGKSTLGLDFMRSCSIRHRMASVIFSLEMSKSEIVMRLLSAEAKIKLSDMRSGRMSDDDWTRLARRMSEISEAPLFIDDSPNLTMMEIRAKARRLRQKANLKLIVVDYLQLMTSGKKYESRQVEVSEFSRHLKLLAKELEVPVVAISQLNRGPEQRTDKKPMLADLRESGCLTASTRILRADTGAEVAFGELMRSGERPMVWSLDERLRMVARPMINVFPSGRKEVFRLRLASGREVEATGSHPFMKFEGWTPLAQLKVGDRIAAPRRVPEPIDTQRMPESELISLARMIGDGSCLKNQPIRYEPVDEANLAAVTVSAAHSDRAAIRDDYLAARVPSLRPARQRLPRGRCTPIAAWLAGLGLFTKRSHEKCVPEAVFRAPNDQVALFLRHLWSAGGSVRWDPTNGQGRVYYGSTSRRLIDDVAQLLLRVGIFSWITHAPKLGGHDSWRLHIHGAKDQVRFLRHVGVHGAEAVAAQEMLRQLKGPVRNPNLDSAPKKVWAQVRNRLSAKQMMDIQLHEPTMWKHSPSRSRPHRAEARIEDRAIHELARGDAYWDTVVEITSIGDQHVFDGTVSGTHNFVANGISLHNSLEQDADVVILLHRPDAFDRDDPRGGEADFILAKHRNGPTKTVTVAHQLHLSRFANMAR
# Protein RecA = biological target: T4, Protein RecA (Mycobacterium tuberculosis, UniProt P9WHJ3); assay: Fluorescence Cell-Free Homogeneous Dose Retest to Identify Inhibitors of RecA-Intein Splicing Activity. [Related pubchem assays (depositor defined):AID2097, AID2223, AID489010, AID492950]; format: functional
# T4 sequence (P9WHJ3 whole entry): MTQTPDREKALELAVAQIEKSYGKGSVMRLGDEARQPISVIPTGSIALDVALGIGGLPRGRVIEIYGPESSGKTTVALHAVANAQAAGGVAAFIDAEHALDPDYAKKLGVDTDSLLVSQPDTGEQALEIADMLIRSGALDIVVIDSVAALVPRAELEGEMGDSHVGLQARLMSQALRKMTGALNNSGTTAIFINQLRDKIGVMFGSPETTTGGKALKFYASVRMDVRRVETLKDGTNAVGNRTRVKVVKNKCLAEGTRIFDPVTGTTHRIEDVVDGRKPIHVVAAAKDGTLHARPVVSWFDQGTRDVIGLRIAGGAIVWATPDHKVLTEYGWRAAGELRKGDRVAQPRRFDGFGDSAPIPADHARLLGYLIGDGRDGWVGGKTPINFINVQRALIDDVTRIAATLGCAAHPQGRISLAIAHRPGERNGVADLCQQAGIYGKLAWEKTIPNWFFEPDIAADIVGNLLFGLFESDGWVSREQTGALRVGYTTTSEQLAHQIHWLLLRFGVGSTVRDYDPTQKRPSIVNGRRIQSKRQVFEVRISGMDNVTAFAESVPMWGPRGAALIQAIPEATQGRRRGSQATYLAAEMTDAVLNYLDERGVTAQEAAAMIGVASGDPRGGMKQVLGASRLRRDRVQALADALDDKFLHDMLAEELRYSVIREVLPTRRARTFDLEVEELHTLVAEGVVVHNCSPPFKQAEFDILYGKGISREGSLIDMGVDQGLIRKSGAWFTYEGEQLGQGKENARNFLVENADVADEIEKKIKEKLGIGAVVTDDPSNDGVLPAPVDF
# [7] = biological target: Glucose-6-phosphate 1-dehydrogenase (Homo sapiens, UniProt P11413); assay: human G6PD enzyme inhibitors, dose response, selectivity assay for P. falciparum G6PD inhibitor project, biochemical, fluorescence (AID 504792); format: functional
# Cytochrome P450 2C9 [8] = biological target: T2, Cytochrome P450 2C9; remark: listed apart in the source
# [9] = Luminescence Cell-Based Dose Retest to Confirm Inhibitors of Cancer Stem Cells. [Related pubchem assays (depositor defined):AID2717, AID2721]; format: functional; settings: Homo sapiens
# [10] = cytotoxicity in HEK-293T cells, dose response, cytotoxicity control for TCR NF-kB inhibitor project, luminescence, T-cell screen hits (AID 489026); format: functional, cell-based;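 further: cells exposed to compound about 14 hours before the viability readout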
# [11] = biological target: T5, Heat shock factor protein 1 (Mus musculus, UniProt P38532); assay: HSF1 potentiators in luciferase reporter cells, confirmation, cell-based, NIH3T3, luminescence, dose retest (AID 435004); format: functional;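 further: stress induced by proteasome inhibitor MG132 added 30 min after compound; luciferase reporter driven by HSF1 response element in NIH3T3 cells; actives raise luminescence as potentiators of the MG132 stress response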
# T5 sequence (P38532 whole entry): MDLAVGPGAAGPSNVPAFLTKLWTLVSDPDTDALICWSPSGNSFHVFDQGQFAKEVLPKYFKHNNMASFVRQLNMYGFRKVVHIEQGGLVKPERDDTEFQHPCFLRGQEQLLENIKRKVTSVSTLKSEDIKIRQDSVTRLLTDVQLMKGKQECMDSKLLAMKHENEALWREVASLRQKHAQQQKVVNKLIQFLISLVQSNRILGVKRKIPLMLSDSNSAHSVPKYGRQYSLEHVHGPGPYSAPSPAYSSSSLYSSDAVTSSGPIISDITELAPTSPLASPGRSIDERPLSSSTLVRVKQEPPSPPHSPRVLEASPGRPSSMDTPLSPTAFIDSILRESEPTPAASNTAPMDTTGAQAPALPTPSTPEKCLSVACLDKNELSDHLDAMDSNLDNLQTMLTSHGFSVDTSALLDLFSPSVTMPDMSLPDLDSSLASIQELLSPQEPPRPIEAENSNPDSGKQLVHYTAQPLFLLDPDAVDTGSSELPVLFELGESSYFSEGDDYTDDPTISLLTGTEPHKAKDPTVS
# [12] = Shn3 3'UTR reporter inhibitors, dose response, cell-based, Clone20 osteoblasts, firefly luciferase, cherry-picked (AID 624132); format: functional;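 further: firefly luciferase luminescence from reporter carrying the Shn3 3'UTR in osteoblasts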
# [13] = HepG2 cell cytotoxicity, dose response, cytotoxicity control for Shn3 inhibitor project, CellTiter-Glo, cherry-picked (AID 624134); format: functional, cell-based
# [14] = control 3'UTR Renilla luciferase suppression, dose response, counter-screen for Shn3 inhibitor project, cell-based, Clone20-Shn3RL, cherry-picked (AID 624133); format: functional
# Cytochrome P450 2D6 = Cytochrome P450 2D6 (Homo sapiens, UniProt P10635);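 further: CYP2D6 member of a cytochrome P450 panel assay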
# Cytochrome P450 1A2 = biological target: T6, Cytochrome P450 1A2 (Homo sapiens, UniProt P05177);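 further: PubChem cytochrome P450 panel assay, CYP1A2 panel member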
# T6 sequence (P05177 whole entry): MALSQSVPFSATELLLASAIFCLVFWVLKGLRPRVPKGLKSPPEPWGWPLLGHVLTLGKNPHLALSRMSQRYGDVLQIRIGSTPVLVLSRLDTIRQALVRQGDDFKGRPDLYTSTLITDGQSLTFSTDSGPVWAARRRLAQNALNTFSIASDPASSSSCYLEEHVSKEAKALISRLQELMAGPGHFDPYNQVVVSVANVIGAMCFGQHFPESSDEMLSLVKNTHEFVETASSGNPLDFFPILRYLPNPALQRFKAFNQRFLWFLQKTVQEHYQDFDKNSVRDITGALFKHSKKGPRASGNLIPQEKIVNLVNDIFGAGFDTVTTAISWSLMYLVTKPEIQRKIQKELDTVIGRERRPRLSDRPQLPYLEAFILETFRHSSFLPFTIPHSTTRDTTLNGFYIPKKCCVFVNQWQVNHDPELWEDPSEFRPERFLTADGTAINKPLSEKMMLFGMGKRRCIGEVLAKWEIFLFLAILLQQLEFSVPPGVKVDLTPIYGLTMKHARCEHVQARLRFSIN
# CHO = assay: cytotoxicity in TLR9-MyD88 CHO cells, dose response, cytotoxicity control for TLR9-MyD88 binding inhibitor project, cell-based, luminescence (AID 588339); format: functional, hamster; settings: Cricetulus griseus;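 further: CHO cells stably coexpressing TLR9 and MyD88 fusions from primary screen; compound exposure lasted 48 hours before viability readout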
# Beta Lactamase = Beta Lactamase (Pseudomonas aeruginosa, UniProt Q932Y6); assay: beta-lactamase reporter inhibitor potency, dose response, artefact control for TLR9-MyD88 binding inhibitor project, BLA reporter cells, FRET fluorescence (AID 588341); format: cell-based;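 further: cell based assay in CHO-K1 cells stably expressing beta-lactamase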
# Sequence of Beta Lactamase (Q932Y6 whole entry): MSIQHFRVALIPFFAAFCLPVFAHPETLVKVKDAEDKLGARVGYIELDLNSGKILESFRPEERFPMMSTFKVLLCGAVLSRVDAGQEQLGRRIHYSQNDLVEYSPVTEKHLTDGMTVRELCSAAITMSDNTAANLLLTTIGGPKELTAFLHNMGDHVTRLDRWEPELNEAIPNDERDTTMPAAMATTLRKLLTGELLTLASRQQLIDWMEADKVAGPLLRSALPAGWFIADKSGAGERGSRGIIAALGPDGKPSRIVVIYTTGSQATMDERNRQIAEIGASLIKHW
# T2 sequence (P11712 whole entry): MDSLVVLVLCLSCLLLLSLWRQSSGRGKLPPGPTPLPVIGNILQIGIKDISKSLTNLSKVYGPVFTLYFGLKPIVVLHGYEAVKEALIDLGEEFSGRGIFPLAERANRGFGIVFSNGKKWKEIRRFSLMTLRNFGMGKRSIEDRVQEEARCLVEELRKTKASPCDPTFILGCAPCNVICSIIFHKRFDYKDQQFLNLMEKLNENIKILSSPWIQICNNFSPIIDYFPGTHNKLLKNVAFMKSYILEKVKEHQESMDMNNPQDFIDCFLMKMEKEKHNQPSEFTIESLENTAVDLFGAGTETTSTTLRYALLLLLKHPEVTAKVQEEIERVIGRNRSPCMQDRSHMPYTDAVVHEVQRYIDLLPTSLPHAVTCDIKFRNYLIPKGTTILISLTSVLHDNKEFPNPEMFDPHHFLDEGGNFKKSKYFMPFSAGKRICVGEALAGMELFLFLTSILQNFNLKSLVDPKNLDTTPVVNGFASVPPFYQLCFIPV
# Sequence of Glyceraldehyde-3-phosphate dehydrogenase (P04406 whole entry): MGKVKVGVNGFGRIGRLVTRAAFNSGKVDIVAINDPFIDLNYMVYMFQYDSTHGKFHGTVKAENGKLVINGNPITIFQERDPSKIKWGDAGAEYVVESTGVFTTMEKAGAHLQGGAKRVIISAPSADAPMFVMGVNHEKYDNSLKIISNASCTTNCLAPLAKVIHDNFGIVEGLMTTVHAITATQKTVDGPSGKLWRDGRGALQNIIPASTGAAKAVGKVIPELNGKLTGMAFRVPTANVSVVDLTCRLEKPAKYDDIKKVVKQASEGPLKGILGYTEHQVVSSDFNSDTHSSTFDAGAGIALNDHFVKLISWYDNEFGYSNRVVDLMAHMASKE
# Sequence of Cytochrome P450 3A4 (P08684 whole entry): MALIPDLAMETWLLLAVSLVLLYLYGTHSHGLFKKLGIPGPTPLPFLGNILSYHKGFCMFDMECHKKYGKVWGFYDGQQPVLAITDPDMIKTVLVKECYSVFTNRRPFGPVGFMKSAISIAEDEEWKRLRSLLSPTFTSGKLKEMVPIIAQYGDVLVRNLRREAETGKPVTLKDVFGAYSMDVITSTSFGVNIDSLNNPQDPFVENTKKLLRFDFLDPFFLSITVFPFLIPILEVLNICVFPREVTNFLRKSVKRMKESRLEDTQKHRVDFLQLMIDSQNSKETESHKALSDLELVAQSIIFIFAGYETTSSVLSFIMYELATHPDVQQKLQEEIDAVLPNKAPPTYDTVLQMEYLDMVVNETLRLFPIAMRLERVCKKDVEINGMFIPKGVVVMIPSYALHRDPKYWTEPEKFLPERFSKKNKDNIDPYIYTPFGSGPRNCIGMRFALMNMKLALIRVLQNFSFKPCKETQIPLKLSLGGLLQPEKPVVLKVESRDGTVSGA
# Sequence of Cytochrome P450 2D6 (P10635 whole entry): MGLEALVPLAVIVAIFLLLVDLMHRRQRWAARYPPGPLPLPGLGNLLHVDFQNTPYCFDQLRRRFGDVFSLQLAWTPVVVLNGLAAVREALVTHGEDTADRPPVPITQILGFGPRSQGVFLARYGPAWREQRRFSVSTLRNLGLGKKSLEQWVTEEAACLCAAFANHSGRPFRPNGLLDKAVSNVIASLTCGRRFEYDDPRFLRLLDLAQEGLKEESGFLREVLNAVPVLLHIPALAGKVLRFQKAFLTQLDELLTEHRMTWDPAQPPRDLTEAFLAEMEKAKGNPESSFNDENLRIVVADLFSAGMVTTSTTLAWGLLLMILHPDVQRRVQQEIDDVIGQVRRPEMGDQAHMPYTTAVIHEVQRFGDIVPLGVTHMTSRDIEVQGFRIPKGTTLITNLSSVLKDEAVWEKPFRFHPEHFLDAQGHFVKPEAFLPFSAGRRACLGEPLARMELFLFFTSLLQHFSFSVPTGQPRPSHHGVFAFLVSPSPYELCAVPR
# Sequence of Glucose-6-phosphate 1-dehydrogenase (P11413 whole entry): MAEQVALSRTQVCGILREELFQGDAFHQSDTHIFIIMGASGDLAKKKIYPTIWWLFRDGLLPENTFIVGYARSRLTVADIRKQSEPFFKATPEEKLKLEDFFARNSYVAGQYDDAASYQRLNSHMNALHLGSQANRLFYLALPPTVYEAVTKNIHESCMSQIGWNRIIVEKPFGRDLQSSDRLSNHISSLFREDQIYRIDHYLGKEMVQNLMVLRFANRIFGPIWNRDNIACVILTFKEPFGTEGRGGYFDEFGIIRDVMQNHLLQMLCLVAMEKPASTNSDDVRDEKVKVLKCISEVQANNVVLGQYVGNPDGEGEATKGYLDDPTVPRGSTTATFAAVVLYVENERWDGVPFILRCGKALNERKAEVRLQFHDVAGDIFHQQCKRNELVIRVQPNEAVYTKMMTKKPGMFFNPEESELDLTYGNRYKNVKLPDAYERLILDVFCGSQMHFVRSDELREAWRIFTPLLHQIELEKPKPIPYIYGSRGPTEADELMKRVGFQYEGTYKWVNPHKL
# Sequence of Cytochrome P450 2C19 (P33261 whole entry): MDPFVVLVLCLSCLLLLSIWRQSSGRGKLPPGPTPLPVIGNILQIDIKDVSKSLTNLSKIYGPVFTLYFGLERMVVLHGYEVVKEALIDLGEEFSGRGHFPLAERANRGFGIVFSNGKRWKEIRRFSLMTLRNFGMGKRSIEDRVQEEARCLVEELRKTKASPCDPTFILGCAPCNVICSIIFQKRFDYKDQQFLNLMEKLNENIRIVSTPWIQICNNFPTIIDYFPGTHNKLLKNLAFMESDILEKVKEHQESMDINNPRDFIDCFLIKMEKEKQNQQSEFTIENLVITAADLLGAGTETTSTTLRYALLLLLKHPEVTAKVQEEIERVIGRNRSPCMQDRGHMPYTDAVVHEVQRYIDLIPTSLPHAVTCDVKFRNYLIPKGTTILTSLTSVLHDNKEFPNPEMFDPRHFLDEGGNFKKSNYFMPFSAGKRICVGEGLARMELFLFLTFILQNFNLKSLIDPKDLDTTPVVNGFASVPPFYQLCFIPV
# Sequence of Estrogen receptor beta (Q92731 whole entry): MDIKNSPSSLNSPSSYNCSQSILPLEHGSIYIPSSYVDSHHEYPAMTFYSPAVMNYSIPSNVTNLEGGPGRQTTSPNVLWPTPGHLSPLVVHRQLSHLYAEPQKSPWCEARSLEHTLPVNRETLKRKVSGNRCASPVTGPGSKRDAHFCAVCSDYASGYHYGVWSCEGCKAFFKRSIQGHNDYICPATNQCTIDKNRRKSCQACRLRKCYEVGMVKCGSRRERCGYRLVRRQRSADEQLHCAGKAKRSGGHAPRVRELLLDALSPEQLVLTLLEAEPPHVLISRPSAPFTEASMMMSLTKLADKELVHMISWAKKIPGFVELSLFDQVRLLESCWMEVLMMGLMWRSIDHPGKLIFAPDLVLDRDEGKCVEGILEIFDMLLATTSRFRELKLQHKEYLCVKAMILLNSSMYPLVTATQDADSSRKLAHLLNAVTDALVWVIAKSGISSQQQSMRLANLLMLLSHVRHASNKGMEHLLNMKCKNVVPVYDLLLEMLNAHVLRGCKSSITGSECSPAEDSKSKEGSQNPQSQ
structure (smiles),measurement,setting,value
Cc1cc(C)n(CC(=O)N/N=C/c2ccc([N+](=O)[O-])s2)n1,EC50,[1],845 nM (active)
same,EC50,[2],> 60 µM (not active)
same,CC50,[3],> 40 µM (active)
same,IC50,cells,48.5 µM (active)
O=C1NC(=S)N/C1=C\c1ccc(-c2cc([N+](=O)[O-])ccc2Br)o1,IC50,[4],> 100 µM (not active)
CC1(C(=O)O)CC(C)(C(=O)O)CC(C)(C(=O)O)C1 (configuration not stated),IC50,Leucine aminopeptidase,58.7 µM (active)
COc1ccc(-n2c(SC)nc(O)c(Cc3ccccc3)c2=O)cc1,IC50,Leucine aminopeptidase,46 µM (active)
same,AC50,Cytochrome P450 2C19,7.94 µM (inconclusive)
same,AC50,Cytochrome P450 3A4,22.4 µM (inconclusive)
same,AC50,Cytochrome P450 2C9 [5],12.6 µM (inconclusive)
Cc1[nH]n(-c2ccccc2)c(=O)c1Sc1ccc(Cl)cc1,IC50,Leucine aminopeptidase,37.4 µM (active)
same,IC50,Estrogen receptor beta,> 50 µM (not active)
same,AC50,[6],12.2 µM (active)
same,EC50,Protein RecA,4.68 µM (active)
O=C(NNC(=O)C1CC2CCC1C2)c1sc2ccccc2c1Cl (configuration not stated),IC50,Leucine aminopeptidase,68.1 µM (active)
N#Cc1c(C#N)c(SSc2c(C#N)c(C#N)c(N)n2-c2ccccc2)n(-c2ccccc2)c1N,IC50,[7],> 80 µM (inactive)
CCCCNC(=O)Cc1coc2ccc3ccccc3c12,AC50,Cytochrome P450 2C9 [8],inconclusive
NC(=O)CC(NC(=O)c1ccc(Br)cc1)c1ccc(N2CCCCCC2)c([N+](=O)[O-])c1 (configuration not stated),AC50,[9],15.4 µM (active)
same,IC50,[10],> 80 µM (inactive)
same,EC50,[11],38.3 µM (active)
same,AC50,[12],7.66 µM (active)
same,AC50,[13],> 70 µM (inactive)
same,AC50,[14],26.6 µM (active)
Cc1noc(C)c1-c1nccc(NC2CC2)n1,AC50,Cytochrome P450 2D6,31.6 µM (inconclusive)
same,AC50,Cytochrome P450 2C9 [8],inconclusive
O=C(c1sc2ccccc2c1Cl)N1CCN(c2ccc(F)cc2)CC1,AC50,Cytochrome P450 2C19,0.0891 µM (inconclusive)
same,AC50,Cytochrome P450 1A2,2.82 µM (inconclusive)
same,AC50,Cytochrome P450 2C9 [8],inconclusive
FC(F)(F)c1cccc(NC(=S)Nc2cccc(Cl)c2)c1,AC50,Cytochrome P450 2D6,28.2 µM (inconclusive)
same,AC50,Cytochrome P450 3A4,25.1 µM (inconclusive)
same,AC50,Cytochrome P450 2C9 [8],inconclusive
CCOc1ccc(C(=O)CN2CCN(S(=O)(=O)c3ccc(OC)cc3)CC2)cc1,IC50,Leucine aminopeptidase,73.5 µM (active)
O=C(O)CCCCC(=O)c1ccc(CC(=O)O)s1,IC50,[4],> 100 µM (not active)
O=C1C(Cl)=C(N2CCN(CCO)CC2)C(=O)N1c1cccc(C(F)(F)F)c1,IC50,[4],> 50 µM (inconclusive)
O=C1C=CC(=O)N1c1ccc2c(c1)C(NC(=O)C(F)(F)F)c1ccccc1-2 (configuration not stated),IC50,[7],> 80 µM (inactive)
same,IC50,CHO,1.91 µM (active)
same,IC50,Beta Lactamase,14.5 µM (inactive)
